The test system of one assay is normal NMRI mice. As to the kind of experiment: Effect on acute food intake in normal NMRI mice. The following applies: male NMRI mice, 10 nmol/kg subcutaneously once. Format: in vivo. The method in brief:
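A single 10 nmol/kg s.c. peptide dose was given 1 h before lights-off to male NMRI mice fasted from 6 h before the night phase (n=7-8). Intake was recorded continuously by microchip-identified HM-2 feeding channels. Values are normalized to vehicle controls (50 mM phosphate buffer pH7 with 5% Mannitol).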

The target in the next assay is T1, human NPY2 receptor (Homo sapiens, UniProt P49146).
T1 sequence (P49146 1-381): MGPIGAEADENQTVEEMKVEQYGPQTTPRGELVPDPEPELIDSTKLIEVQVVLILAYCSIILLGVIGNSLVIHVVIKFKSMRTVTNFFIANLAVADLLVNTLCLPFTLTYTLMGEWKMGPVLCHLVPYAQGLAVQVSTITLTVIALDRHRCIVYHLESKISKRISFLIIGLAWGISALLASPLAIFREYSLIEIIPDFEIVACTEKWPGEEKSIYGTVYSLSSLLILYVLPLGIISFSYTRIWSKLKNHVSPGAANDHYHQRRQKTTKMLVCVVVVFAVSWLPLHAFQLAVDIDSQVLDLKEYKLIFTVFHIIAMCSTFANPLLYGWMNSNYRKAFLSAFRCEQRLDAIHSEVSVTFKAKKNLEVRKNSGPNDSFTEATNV
As to the kind of experiment: HTRF cAMP Gi assay, hY2R. A general note: In TR-FRET formats the signal depends on donor and acceptor labels being close together.

In assay [1] the target is T2, Human Neuropeptide Y2 Receptor (Homo sapiens, UniProt P49146).
T2 construct: purchased CHEMICON HTS066M
T2 sequence (P49146 1-381): T1 sequence (P49146 1-381)
Put plainly: Radioligand binding competition assay (RLB). The following applies: Table 3; human 125I-PYY (1-36) 0.02 nM, Y2 receptor membranes; read-out: Ki. The method in brief: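 Filtration format; Y2R membrane prep 0.5 μg/well; buffer 50 mM HEPES/5 mM MgCl2/1 mM CaCl2/0.2% ovalbumin pH 7.4; 2 h RT, shaking. Harvest on PEI-soaked GF/C, ice-cold HEPES/500 mM NaCl washes, scintillation count. IC50 by nonlinear fit.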

Another assay addresses T3, human NPY4 receptor (Homo sapiens, UniProt P50391).
T3 construct: expressed in transfected cells; host or cells: CHO-K1
As to the kind of experiment: HTRF cAMP Gi assay, hY4R. Format: cell-based. The note with it: Table 4; CHO-K1 cells.

A further assay addresses T4, human NPY5 receptor (Homo sapiens, UniProt Q15761).
T4 sequence (Q15761 1-445): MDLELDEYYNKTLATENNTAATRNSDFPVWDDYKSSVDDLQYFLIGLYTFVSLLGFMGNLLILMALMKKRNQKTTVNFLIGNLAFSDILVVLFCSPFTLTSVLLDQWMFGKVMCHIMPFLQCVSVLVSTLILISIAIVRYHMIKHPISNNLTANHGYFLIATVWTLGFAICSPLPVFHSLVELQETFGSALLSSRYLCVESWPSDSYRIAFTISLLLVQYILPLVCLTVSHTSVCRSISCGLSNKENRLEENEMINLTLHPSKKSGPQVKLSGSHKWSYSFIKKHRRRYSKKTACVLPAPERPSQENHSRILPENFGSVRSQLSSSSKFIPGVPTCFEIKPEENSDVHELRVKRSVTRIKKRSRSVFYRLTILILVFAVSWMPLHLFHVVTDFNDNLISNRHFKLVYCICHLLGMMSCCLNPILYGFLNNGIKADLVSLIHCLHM
Put plainly: HTRF cAMP Gi assay, hY5R.

In a further assay the target is T5, human NPY1 receptor (Homo sapiens, UniProt P25929).
T5 construct: expressed in transfected cells; host or cells: CHO-K1
T5 sequence (P25929 1-384): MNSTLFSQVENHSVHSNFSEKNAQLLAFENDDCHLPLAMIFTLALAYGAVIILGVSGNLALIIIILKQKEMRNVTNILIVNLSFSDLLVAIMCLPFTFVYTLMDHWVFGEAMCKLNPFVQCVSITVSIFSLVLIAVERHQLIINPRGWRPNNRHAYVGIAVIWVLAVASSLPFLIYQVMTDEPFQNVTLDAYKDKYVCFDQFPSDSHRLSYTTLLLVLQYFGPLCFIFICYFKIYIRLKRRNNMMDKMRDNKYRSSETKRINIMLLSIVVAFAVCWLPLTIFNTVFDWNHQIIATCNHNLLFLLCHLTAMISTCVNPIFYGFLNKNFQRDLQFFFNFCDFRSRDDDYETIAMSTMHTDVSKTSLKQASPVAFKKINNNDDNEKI
Put plainly: HTRF cAMP Gi assay, hY1R. Format: cell-based. The following applies: Table 4; CHO-K1 cells.

T3 sequence (P50391 whole entry): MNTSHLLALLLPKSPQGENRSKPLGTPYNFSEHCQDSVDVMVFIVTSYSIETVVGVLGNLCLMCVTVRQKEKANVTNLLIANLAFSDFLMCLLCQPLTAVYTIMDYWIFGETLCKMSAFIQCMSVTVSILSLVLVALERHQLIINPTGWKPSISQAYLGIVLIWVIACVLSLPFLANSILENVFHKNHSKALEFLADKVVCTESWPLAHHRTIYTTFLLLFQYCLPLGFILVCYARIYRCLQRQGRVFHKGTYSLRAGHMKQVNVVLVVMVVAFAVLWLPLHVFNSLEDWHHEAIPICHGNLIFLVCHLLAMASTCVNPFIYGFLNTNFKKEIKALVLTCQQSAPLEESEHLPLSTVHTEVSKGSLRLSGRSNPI
Procedure for human NPY1 receptor: (§1) Briefly, the production of intracellular cAMP will generate a competition between unlabeled cAMP and exogenously added d2-cAMP for anti-cAMP antibodies conjugated to cryptate. CHO-K1 cells stably expressing the human NPY1, NPY2, NPY4 and NPY5 receptors were used with the cells brought to life from a frozen stock immediately before assay performance. 2000 cells per well were applied for all four NPY receptor subtype assays. A 384-well format was used applying a total volume of 20 μl using 5 μl cells, 2.5 μl peptide agonist, 2.5 μl forskolin and 5 μl of each of the fluorophores. […] Concentration-response evaluation of compounds was performed with 11 concentrations of agonist peptides (covering 3 decades). EC50 values were calculated by nonlinear regression using sigmoid concentration-response with variable slope.
Procedure for human NPY2 receptor: as §1

As to `CC(C)CC(=O)N[C@@H](C)C(=O)N1CCC[C@H]1C(=O)N[C@@H](CCC(=O)O)C(=O)N[C@@H](CCCCNC(=O)COCCOCCNC(=O)COCCOCCNC(=O)CC[C@H](NC(=O)CCCCCCCCCCCCCCCCC(=O)O)C(=O)O)C(=O)N1CCC[C@H]1C(=O)N[C@@H](CCC(=O)O)C(=O)N[C@@H](CCC(=O)O)C(=O)N[C@@H](CCC(=O)O)C(=O)N[C@@H](C)C(=O)N[C@@H](CO)C(=O)N1CCC[C@H]1C(=O)N[C@@H](CCC(=O)O)C(=O)N[C@@H](CCC(=O)O)C(=O)N[C@@H](CC(C)C)C(=O)N[C@@H](CCC(N)=O)C(=O)N[C@@H](CCCNC(=N)N)C(=O)N[C@@H](Cc1ccc(O)cc1)C(=O)N[C@@H](Cc1ccc(O)cc1)C(=O)N[C@H](C(=O)N[C@@H](CO)C(=O)N[C@@H](CC(C)C)C(=O)N[C@@H](CCCNC(=N)N)C(=O)N[C@@H](Cc1c[nH]cn1)C(=O)N[C@@H](Cc1ccc(O)cc1)C(=O)N[C@@H](Cc1ccc(O)cc1)C(=O)N[C@@H](CC(N)=O)C(=O)N[C@@H](Cc1c[nH]c2ccccc12)C(=O)N[C@@H](CC(C)C)C(=O)N[C@H](C(=O)N[C@@H](CCCNC(=N)N)C(=O)N[C@@H](CCC(N)=O)C(=O)N[C@@H](CCCNC(=N)N)C(=O)N[C@@H](Cc1ccc(O)cc1)C(N)=O)[C@@H](C)O)C(C)C` [Compound 46, N{alpha-4}-(3-methylbutanoyl)-N{epsilon-7}-[2-(2-{2-[2-(2-{2-[(4S)-4-carboxy-4-(17-carboxyheptadecanamido)butanamido]ethoxy}ethoxy)acetamido]ethoxy}ethoxy)acetamido]-[4A,7K,9E,11E,18Q,22V,28Y,30W,31L]hPYY (4-36)], the “Acute Food Intake 24 h [% vehicle]” value with normal NMRI mice was determined as 39 % vehicle. Also, the concentration for a half-maximal effect (EC50) (as a rule, the concentration that produces a half-maximal response) at human NPY2 receptor was 0.152 nM; on human NPY4 receptor, > 5000 nM; at human NPY5 receptor, > 5000 nM; at human NPY1 receptor, > 5000 nM. Further, the Ki (as a rule, the dissociation constant of the complex between target and ligand, obtained from inhibition or displacement) in assay [1] amounted to 3.3 nM.
As to `CC(C)CC(=O)N[C@@H](C)C(=O)N1CCC[C@H]1C(=O)N[C@@H](CCC(=O)O)C(=O)N[C@@H](CCCCNC(=O)COCCOCCNC(=O)COCCOCCNC(=O)CC[C@H](NC(=O)CCCCCCCCCCCCCCCCC(=O)O)C(=O)O)C(=O)N1CCC[C@H]1C(=O)N[C@@H](CCC(=O)O)C(=O)N[C@@H](CCC(=O)O)C(=O)N[C@@H](CC(=O)O)C(=O)N[C@@H](C)C(=O)N[C@@H](CCC(=O)O)C(=O)N1CCC[C@H]1C(=O)N[C@@H](CCC(=O)O)C(=O)N[C@@H](CCC(=O)O)C(=O)N[C@@H](CC(C)C)C(=O)N[C@@H](CCC(N)=O)C(=O)N[C@@H](CCCNC(=N)N)C(=O)N[C@@H](Cc1ccc(O)cc1)C(=O)N[C@@H](Cc1ccc(O)cc1)C(=O)N[C@H](C(=O)N[C@@H](CO)C(=O)N[C@@H](CC(C)C)C(=O)N[C@@H](CCCNC(=N)N)C(=O)N[C@@H](Cc1c[nH]cn1)C(=O)N[C@@H](Cc1ccc(O)cc1)C(=O)N[C@@H](Cc1ccc(O)cc1)C(=O)N[C@@H](CC(N)=O)C(=O)N[C@@H](Cc1c[nH]c2ccccc12)C(=O)N[C@@H](CC(C)C)C(=O)N[C@H](C(=O)N[C@@H](CCCNC(=N)N)C(=O)N[C@@H](CCC(N)=O)C(=O)N[C@@H](CCCNC(=N)N)C(=O)N[C@@H](Cc1ccc(O)cc1)C(N)=O)[C@@H](C)O)C(C)C` [Compound 188, N{alpha-4}-(3-methylbutanoyl)-N{epsilon-7}-[2-(2-{2-[2-(2-{2-[(4S)-4-carboxy-4-(17-carboxyheptadecanamido)butanamido]ethoxy}ethoxy)acetamido]ethoxy}ethoxy)acetamido]-[4A,7K,9E,13E,18Q,22V,28Y,30W,31L]hPYY (4-36)], the “Acute Food Intake 24 h [% vehicle]” value in the assay with normal NMRI mice came out at 55 % vehicle. For the same compound, the concentration giving a half-maximal response (EC50) at human NPY2 receptor was 0.106 nM; on human NPY4 receptor, > 5000 nM; at human NPY5 receptor, > 5000 nM; on human NPY1 receptor, > 5000 nM. Moreover, the Ki in assay [1] turned out to be 3.09 nM.

For the origin of these results see patent US12559529B2, “NPY2 receptor agonists” (Boehringer Ingelheim International GmbH, priority 2019, dated 2026).
